According to patent US7378385B2, “Role for GLP-1 to mediate responses to disparate stressors” (University of Cincinnati, priority 2002, dated 2008):
Where no end group is shown, it is not given here.

Legend:
HPA axis [1] = experiment: Effect of central (intracerebroventricular) GLP-1 on the HPA axis, plasma ACTH and corticosterone by RIA; assay type: in vivo, rats
Description: Central GLP1 effects on the HPA axis were assayed as described in Kinzig et al. (2003) J. Neuroscience 21:6163-6170, herein incorporated by reference in its entirety). Ten male Long-Evans rats (275-350 gm) were housed individually in plastic tub cages with a 12 hour light/dark cycle. […] Catheters were made of sterile SILASTIC tubing, the distal end beveled, a small piece sterile suture tied at 4 cm from the distal end, and filled with heparinized saline. The catheter was attached to a 1 ml syringe filled with heparinized saline at the end that remained at the head. Under ketamine ([…], i.p.) and xylazine (1.5 mg/kg i.p.) anesthesia, the rat's abdomen and top of the head were shaved. A midline incision (approx. 8 cm in length) was made beginning at the sternum. An additional incision was made on the skull. The catheter was subcutaneously from the skull incision to the muscle wall lining the intraperitoneal cavity with a pair of straight hemostats. The muscle wall underlying the abdominal skin incision was opened. A small incision was made in the right muscle wall, through which the catheter was pulled into the intraperitoneal cavity. […] The vein was then punctured with a 21 gauge needle, and the catheter was quickly inserted to the 4 cm mark. Heparinized saline (0.5 ml) was slowly pushed through the inserted catheter. One suture was made in the dorsal muscle wall immediately to the right of the insertion site. […]
Ten days after surgery, cannula placement was verified by administering angiotensin II through the cannula (intracerebroventricular, (i3vt)). Catheter patency was also determined 10 days after surgery. […]
Plasma was extracted and subsequently assayed (RIA) for ACTH and corticosterone (CORT). Results from one such experiment are presented in FIG. 1, panels A and B. Results were analyzed by two-way ANOVA and Tukey's HSD test.
Plasma ACTH and corticosterone concentrations were determined using ^125I-labeled rat ACTH and corticosterone kits according to manufacturers' instructions. […]

HPA axis [2] = experiment: Peripheral (intraperitoneal) GLP-1 effects on the HPA axis; assay type: in vivo, rats; details: peripheral administration of GLP-1
Description: Plasma ACTH and corticosterone concentrations were determined using ^125I-labeled rat ACTH and corticosterone kits according to manufacturers' instructions. The limits of detection for each kit are 15 pg/ml and 8 ng/ml, respectively. For both ACTH and corticosterone assays, all plasma samples were run in duplicate in single assays.
An additional group of six rats was prepared as described in example 1 to test the effects of peripheral administration of GLP-1 on ACTH and corticosterone (CORT) release. Using a within-subjects design, rats were administered saline and 10, 100, and 500 μg/kg GLP-1 intraperitoneally. Each rat received each treatment in a randomized manner, with no less than 5 days between treatments.

[3] = test system: mammalian central nervous system; experiment: Relative potency in the mammalian central nervous system; assay type: in vivo

Substance	activation of the HPA axis, dose compared with dose required to decrease food intake (HPA axis [1]; GLP-1 acting in the CNS)	activity of the HPA axis (HPA axis [1]; central administration of GLP-1)	stress response (HPA axis [1]; in vivo)	activity of the HPA axis (HPA axis [2])	potency relative to GLP-1(7-36) amide [3]
GLP-1: post-translational product of preproglucagon; ligand of the GLP-1 receptor (HAEGTFTSDVSSYLEGQAAKEFIAWLVKGR; ends and bridges not checked; UniProt P01275 98-127, looked up)	potent activation of the HPA axis at doses lower than that required to decrease food intake	excites the HPA axis	increases the stress response	does not	–
exendin 4: GLP-1 receptor agonist	–	–	–	–	at least 20 times
